Test results as given in US10954252B1, “Inhibitors of human immunodeficiency virus replication” (ViiV HEALTHCARE UK (NO.5) LIMITED, priority 2017, dated 2021).

Assays:
[1] = system: recombinant NL4-3 virus (nef section replaced with Renilla luciferase gene) in MT-2 cells; test: HIV cell culture assay (antiviral activity, luciferase readout); type: cell-based; settings: MT-2 cells infected for 4-5 days with recombinant NL4-3 luciferase virus
Procedure, shortened: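 Serially diluted compounds were present throughout a 4-5 day infection of MT-2 cells by recombinant NL4-3 whose nef region partly encodes Renilla luciferase. Antiviral activity was taken from live-cell luciferase signal, with the 50% effective concentration fitted by the exponential median effect equation.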

[2] = Compound cytotoxicity, XTT-based colorimetric assay; type: cell-based; settings: human, uninfected MT2 cells
Procedure, shortened: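 XTT colorimetric read-out on day 4 gave CC50 values, using MT2 cells left uninfected but otherwise handled as in the antiviral assay.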

Compound	EC50 ([1]; Renilla, NL43, Table 1a) [nM]	CC50 at 4 days ([2]; Table 1a, day 4, XTT) [nM]	EC50 ([1]; Renilla, NL43, Table 1) [nM]	CC50 at 4 days ([2]; Table 1, day 4, XTT) [nM]	EC50 ([1]; Table 1a) [nM]
COc1ccc(-n2c([C@H](Cc3cc(F)cc(F)c3)NC(=O)Cn3nc(C(F)F)c4c3C(F)(F)[C@@H]3C[C@H]43)nc3ncccc3c2=O)cn1 [Example 29, 2-[(2S,4R)-9-(difluoromethyl)-5,5-difluoro-7,8-diazatricyclo[4.3.0.0^2,4]nona-1(6),8-dien-7-yl]-N-[(1S)-2-(3,5-difluorophenyl)-1-[3-(6-methoxypyridin-3-yl)-4-oxo-3H,4H-pyrido[2,3-d]pyrimidin-2-yl]ethyl]acetamide]	26	> 10000			
Cn1nc(NS(C)(=O)=O)c2c(Cl)ccc(-c3cc4[nH]ncc4nc3[C@@H](Cc3cc(F)cc(F)c3)NC(=O)Cn3nc(C(F)F)c4c3C(F)(F)[C@@H]3C[C@H]43)c21 [Example 3.8, N—((R)-1-(6-(4-chloro-1-methyl-3-(methylsulfonamido)-1H-indazol-7-yl)-1H-pyrazolo[4,3-b]pyridin-5-yl)-2-(3,5-difluorophenyl)ethyl)-2-((3bS,4aR)-3-(difluoromethyl)-5,5-difluoro-3b,4,4a,5-tetrahydro-1H-cyclopropa[3,4]cyclopenta[1,2-c]pyrazol-1-yl)acetamide]			21	10200	
CC(C)c1ccc(-n2c([C@H](Cc3cc(F)cc(F)c3)NC(=O)Cn3nc(C(F)F)c4c3C(F)(F)[C@@H]3C[C@H]43)nc3ncccc3c2=O)cn1 [Example 10.37]			4.8	6900	
O=C(Cn1nc(C(F)F)c2c1C(F)(F)[C@@H]1C[C@H]21)N[C@@H](Cc1cc(F)cc(F)c1)c1nc2cn[nH]c2cc1-c1ccc(S(=O)(=O)N2CCSCC2)cc1 [Example 27, 2-((3bS,4aR)-3-(difluoromethyl)-5,5-difluoro-3b,4,4a,5-tetrahydro-1H-cyclopropa[3,4]cyclopenta[1,2-c]pyrazol-1-yl)-N—((S)-2-(3,5-difluorophenyl)-1-(6-(4-(thiomorpholinosulfonyl)phenyl)-1H-pyrazolo[4,3-b]pyridin-5-yl)ethyl)acetamide]	4.94	5010			
Cn1nc(NS(C)(=O)=O)c2c(Cl)ccc(-n3c([C@H](Cc4cc(F)cc(F)c4)NC(=O)Cn4nc(C(F)F)c5c4CCC5)nc4ncccc4c3=O)c21 (single isomer, unassigned) [Example 46.1]	10.3	> 1000			
COc1ccc2c(=O)n(-c3ccc(Cl)c4c(NS(C)(=O)=O)nn(CC(F)F)c34)c(C(Cc3cc(F)cc(F)c3)NC(=O)Cn3nc(C(F)F)c4c3C(F)(F)[C@@H]3C[C@H]43)nc2n1 (single isomer, unassigned) [Example 54.1]	43.4	> 1000			
CC(C)c1ccc(-n2c([C@H](Cc3cc(F)cc(F)c3)NC(=O)Cn3nc(C(F)F)c4c3C(F)(F)[C@@H]3C[C@H]43)nc3ncccc3c2=O)cc1 [Example 35, 2-[(2S,4R)-9-(difluoromethyl)-5,5-difluoro-7,8-diazatricyclo[4.3.0.0^2,4]nona-1(6),8-dien-7-yl]-N-[(1S)-2-(3,5-difluorophenyl)-1-{4-oxo-3-[4-(propan-2-yl)phenyl]-3H,4H-pyrido[2,3-d]pyrimidin-2-yl}ethyl]acetamide]	16.3	1580			
Cn1nc(NS(C)(=O)=O)c2c(Cl)ccc(-c3cc4sc(N)nc4nc3C(Cc3cc(F)cc(F)c3)NC(=O)Cn3nc(C(F)F)c4c3C(F)(F)[C@@H]3C[C@H]43)c21 (mixture of isomers) [Example 194, N-(1-(2-amino-6-(4-chloro-1-methyl-3-(methylsulfonamido)-1H-indazol-7-yl)thiazolo[4,5-b]pyridin-5-yl)-2-(3,5-difluorophenyl)ethyl)-2-((3bS,4aR)-3-(difluoromethyl)-5,5-difluoro-3b,4,4a,5-tetrahydro-1H-cyclopropa[3,4]cyclopenta[1,2-c]pyrazol-1-yl)acetamide]	1.9	> 10000			
CS(=O)(=O)Nc1nn(CC(F)F)c2c(-c3nc4ccccc4nc3[C@H](Cc3cc(F)cc(F)c3)NC(=O)Cn3nc(C(F)F)c4c3C(F)(F)[C@@H]3C[C@H]43)ccc(Cl)c12 [Example 96, N—((S)-1-(3-(4-chloro-1-(2,2-difluoroethyl)-3-(methylsulfonamido)-1H-indazol-7-yl)quinoxalin-2-yl)-2-(3,5-difluorophenyl)ethyl)-2-((3bS,4aR)-3-(difluoromethyl)-5,5-difluoro-3b,4,4a,5-tetrahydro-1H-cyclopropa[3,4]cyclopenta[1,2-c]pyrazol-1-yl)acetamide]	0.26	> 1000			
Cn1nc(NS(C)(=O)=O)c2c(Cl)ccc(-n3c([C@H](Cc4cc(F)cc(F)c4)NC(=O)Cn4ccc(C(F)(F)F)n4)nc4cc(C(F)(F)F)ccc4c3=O)c21 (single isomer, unassigned) [Example 141]		> 1000			217
Cn1nc(NS(C)(=O)=O)c2c(Cl)ccc(-n3c([C@H](Cc4cc(F)cc(F)c4)NC(=O)Cn4nc(C(F)F)c5c4C(F)(F)[C@@H]4C[C@H]54)nc4cc(C(C)(F)F)ccc4c3=O)c21 (mixture of isomers) [Example 195, N—((S)-1-(3-(4-chloro-1-methyl-3-(methylsulfonamido)-1H-indazol-7-yl)-7-(1,1-difluoroethyl)-4-oxo-3,4-dihydroquinazolin-2-yl)-2-(3,5-difluorophenyl)ethyl)-2-((3bS,4aR)-3-(difluoromethyl)-5,5-difluoro-3b,4,4a,5-tetrahydro-1H-cyclopropa[3,4]cyclopenta[1,2-c]pyrazol-1-yl)acetamide]	74.4	> 1000			
Cn1nc(NS(C)(=O)=O)c2c(Cl)ccc(-n3c([C@H](Cc4cc(F)cc(F)c4)NC(=O)Cn4nc(C(F)F)c5c4C(F)(F)[C@@H]4C[C@H]54)nc4ccc(F)c(Cl)c4c3=O)c21 (single isomer, unassigned) [Example 160]		> 1000			0.18
Cn1nc(NS(C)(=O)=O)c2c(Cl)ccc(-n3c([C@H](Cc4cc(F)cc(F)c4)NC(=O)Cn4nc5c(c4C(F)F)CCC5)nc4ncccc4c3=O)c21 (single isomer, unassigned) [Example 48.2]	0.16	> 1000			
COc1ccc(-n2c([C@H](Cc3cc(F)cc(F)c3)NC(=O)Cn3nc(C(F)F)c4c3C(F)(F)[C@@H]3C[C@H]43)nc3ccccc3c2=O)cc1 [Example 10.31]			18	> 10000	
Cn1nc(NS(C)(=O)=O)c2c(Cl)ccc(-n3c([C@H](Cc4cc(F)cc(F)c4)NC(=O)Cn4nc(C(F)F)c5c4C(F)(F)[C@@H]4C[C@H]54)nc4c(F)cccc4c3=O)c21 (single isomer, unassigned) [Example 71]	9.58	> 1000			
NC(=O)c1cc(-n2c([C@H](Cc3cc(F)cc(F)c3)NC(=O)Cn3nc(C(F)F)c4c3C(F)(F)[C@@H]3C[C@H]43)nc3ncccc3c2=O)ccc1F [Example 33, 5-{2-[(1S)-1-{2-[(2S,4R)-9-(difluoromethyl)-5,5-difluoro-7,8-diazatricyclo[4.3.0.0^2,4]nona-1(6),8-dien-7-yl]acetamido}-2-(3,5-difluorophenyl)ethyl]-4-oxo-3H,4H-pyrido[2,3-d]pyrimidin-3-yl}-2-fluorobenzamide]	3.92	> 10000			
